From patent US20050267096A1, “New indazole and indolone derivatives and their use pharmaceuticals” (Pfizer Inc, priority 2004, published 2005) come the findings set out here.

Each structure is given as a SMILES string. pEC50: −log10 of the molar value.

The target in one test is dopamine D3 receptor (Homo sapiens, UniProt P35462). Put plainly: D3/D2 agonist assay, functional potency at D3 receptor. Format: cell-based. Here is the method: (§1) Activity at the dopamine D3 receptor may be determined using the methods described in WO 2004/052372. […] Selectivity is calculated as the D2 EC50 value divided by the D3 EC50 value. Where the value of the D2 EC50 was >10000, a figure of 10000 was used in the calculation.
Sequence of dopamine D3 receptor (P35462 whole entry, species assumed): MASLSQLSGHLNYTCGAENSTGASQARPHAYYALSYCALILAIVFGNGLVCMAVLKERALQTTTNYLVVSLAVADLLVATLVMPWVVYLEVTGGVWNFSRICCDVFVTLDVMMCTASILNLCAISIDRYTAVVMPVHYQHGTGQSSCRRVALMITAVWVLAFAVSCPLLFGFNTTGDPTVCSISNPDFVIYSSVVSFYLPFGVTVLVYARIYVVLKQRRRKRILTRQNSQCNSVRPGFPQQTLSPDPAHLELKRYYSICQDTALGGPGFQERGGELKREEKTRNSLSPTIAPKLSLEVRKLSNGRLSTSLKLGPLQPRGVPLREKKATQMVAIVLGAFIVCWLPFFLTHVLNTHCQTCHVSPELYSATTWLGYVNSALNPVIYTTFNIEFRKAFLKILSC
(§2) Against the D2 receptor this compound gave only a 28% repsonse (relative to the maximal effect of pramipexole) at 1000 nM. Suitable auxiliary active agents for use in the combinations of the present invention include: • 1) Naturally occurring or synthetic prostaglandins or esters thereof. Suitable prostaglandins for use herein include compounds such as alprostadil, prostaglandin E1, prostaglandin E0, 13,14-dihydroprosta glandin E1, prostaglandin E2, eprostinol, natural synthetic and semi-synthetic prostaglandins and derivatives thereof including those described in WO-00033825 and/or U.S. Pat. No. 6,037,346 issued on 14 Mar. 2000 all incorporated herein by reference, PGE0, PGE1, PGA1, PGB1, PGF1 α, 19-hydroxy PGA1, 19-hydroxy-PGB1, PGE2, PGB2, 19-hydroxy-PGA2, 19-hydroxy-PGB2, PGE3α, carboprost tromethamine dinoprost, tromethamine, dinoprostone, lipo prost, gemeprost, metenoprost, sulprostune, tiaprost and moxisylate; • 2) α-adrenergic receptor antagonist compounds also known as α-adrenoceptors or α-receptors or α-blockers. […]

Another test addresses dopamine D2 receptor (Homo sapiens, UniProt P14416). In words: D3/D2 agonist assay, functional response at D2 receptor. The settings on record: at 1000 nM; relative to the maximal effect of pramipexole. Format: cell-based. Here is the method:
as §1, §2

Sequence of dopamine D2 receptor (P14416 whole entry): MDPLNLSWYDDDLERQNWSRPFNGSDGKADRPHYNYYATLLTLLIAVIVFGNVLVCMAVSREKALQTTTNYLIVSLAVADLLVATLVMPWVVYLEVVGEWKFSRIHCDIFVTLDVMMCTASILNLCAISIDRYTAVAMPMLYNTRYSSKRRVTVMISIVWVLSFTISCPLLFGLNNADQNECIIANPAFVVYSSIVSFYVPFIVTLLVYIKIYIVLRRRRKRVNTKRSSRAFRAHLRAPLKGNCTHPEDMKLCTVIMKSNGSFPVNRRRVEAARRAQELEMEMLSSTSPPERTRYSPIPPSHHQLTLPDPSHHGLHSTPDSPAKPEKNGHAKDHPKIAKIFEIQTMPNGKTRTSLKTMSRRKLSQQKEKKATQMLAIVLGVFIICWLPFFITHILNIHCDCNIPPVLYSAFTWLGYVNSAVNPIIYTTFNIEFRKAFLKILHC

Consider `CCCN1CC(c2cccc3[nH]ncc23)C1` [Example 13, 4-(1-propylazetidin-3-yl)-1H-indazole], for which, at dopamine D3 receptor (methods described in WO 2004/052372, read-out: functional potency at the D3 receptor, expressed as an EC50), the pEC50 is 7.42. In addition, the Emax on dopamine D3 receptor (relative to the maximal effect of standard agent pramipexole, read-out: Emax (maximal response value) at the D3 receptor) came to 74%. On dopamine D2 receptor, the “response against the D2 receptor” value worked out at 28%.
